In brackets after ≈: the same amount, converted by molar mass.

The test system of test [1] is Hek293. Description: Cytotoxicity, flow cytofluorimetry (Guava ViaCount / 7-AAD). The class given is cell-based. To be noted: Homo sapiens, mean ± SEM, at least 3 independent experiments. As to the method: (§1) The cytotoxicity of the prepared compounds was studied using Jurkat, K562, U937, and HL-60 suspension tumor cells; conditionally normal Hek293 cells; and normal fibroblasts. The IC50 values were determined by flow cytofluorimetry with the Guava ViaCount reagent kit (Millipore, Bedford, MA, USA).
(§2) Cells (Jurkat, K562, U937, HL-60, HEK293, and normal fibroblasts) were purchased from HPA Culture Collections (Salisbury, UK) and cultured according to standard mammalian tissue culture protocols and the sterile technique. All cell lines used in the study were tested and shown to be free of mycoplasma and other […] contamination. HEK293 and fibroblast cell lines were cultured as monolayers and maintained in Dulbecco’s modified Eagle’s medium (DMEM, Gibco BRL, Waltham, MA, USA) supplemented with 10% fetal bovine serum and 1% penicillin-streptomycin solution at 37 °C in a humidified incubator under a 5% CO2 atmosphere.
(§3) Cells were maintained in RPMI 1640 (Jurkat, K562, U937, HL60) (Gibco, Waltham, MA, USA) supplemented with 4 mM glutamine, 10% FBS (Sigma, Burlington, MA, USA), and 100 units/ml penicillin–streptomycin (Sigma, Burlington, MA, USA). All types of cells were grown in an atmosphere of 5% CO2 at 37 °C. The cells were subcultured at 2–3-day intervals. Adherent cells (HEK293 and normal fibroblasts) were suspended using trypsin/EDTA and counted after they reached 80% confluency. Cells were then seeded in 24-well plates at 5 × 10^4 cells per well and incubated overnight. Jurkat, K562, U937, and HL60 cells were subcultured at 2-day intervals with a seeding density of 1 × 10^5 cells per 24-well plates in RPMI with 10% FBS.
(§4) Viability (live/dead) assessment was performed by staining cells with 7-AAD (7-Aminoactinomycin D) (Biolegend, Fell, Germany). After treatment, cells were harvested, washed 1–2 times with phosphate-buffered saline (PBS), and centrifuged at 400× g for 5 min. Cell pellets were resuspended in […] of flow cytometry staining buffer (PBS without Ca^2+ and Mg^2+, 2.5% FBS) and stained with 5 μL of 7-AAD staining solution for 15 min at room temperature in the dark. Samples were acquired on a NovoCyteTM 2000 FlowCytometry System (ACEA) equipped with a 488 nm argon laser. Detection of 7-AAD emission was collected through a 675/30 nm filter in FL4 channel.

In test [2] the test system is HL-60. Described as above. The test is classed as cell-based. To be noted: Homo sapiens, mean ± SEM, at least 3 independent experiments. As to the method: as §1, §2, §3, §4
For test [3], the system named is U937. The description is as above. The test is classed as cell-based. To be noted: Homo sapiens, U-937; mean ± SEM, at least 3 independent experiments. Here is the method:
as §1, §2, §3, §4

The test system of test [4] is Jurkat. Described as above. The class given is cell-based. To be noted: Homo sapiens, mean ± SEM, at least 3 independent experiments. Here is the method:
as §1, §2, §3, §4

Test [5] concerns K562. The test is described as above. To be noted: Homo sapiens, mean ± SEM, at least 3 independent experiments. The class given is cell-based. As to the method: as §1, §2, §3, §4
Test [6] has as its system normal fibroblasts. The description is as above. The class given is cell-based. To be noted: Fibroblast; mean ± SEM, at least 3 independent experiments; read-out: Fibrobl. (IC50). As to the method:
as §1, §2, §3, §4

Test [7] has as its system Jurkat cells. Description: Cell cycle analysis (Guava Cell Cycle Reagent). To be noted: IC50 concentrations (8a 0.15 µM, 8b 0.16 µM, 8c 0.13 µM), 24 h. The class given is cell-based. Here is the method:
Cell cycle analysis was carried out following the known procedure. Guava Cell Cycle Reagent (Millipore, Burlington, MA, USA) was used. Samples were analyzed on a NovoCyteTM 2000 FlowCytometry System (ACEA, San Diego, CA, USA).

Test [8] concerns Jurkat cells. Description: Induction of apoptosis, Annexin V / 7AAD flow cytometry. The test is classed as cell-based. To be noted: 24 h; for apoptosis-inducing effect, dependence on dose: 0.1-0.3 µM. As to the method: We studied the new macrodiolides for the induction of apoptosis and for the effect on the cell cycle. For this purpose, we chose the Jurkat, K562, and U937 cell lines. Apoptosis was studied by flow cytofluorimetry using Annexin V and 7-aminoactinomycin D (7AAD) (Guava Nexin reagent (Millipore, Bedford, MA, USA)). After incubation, the cells were analyzed using a NovoCyte™ 2000 Flow Cytometry System (ACEA). Apoptotic cells are characterized by externalization of the phosphatidylserine (PS) phospholipid, which is normally located, in living cells, on the inner surface of the cell membrane. The phospholipid location on the outer membrane surface can be detected from early apoptosis up to complete cell degradation. […] The use of Annexin V in combination with 7AAD allows simultaneous discrimination between viable cells (V–/7AAD–), early apoptotic cells (V+/7AAD–), and late apoptotic or necrotic cells (V+/7AAD+).
Induction of apoptosis tests were carried out following the known procedure. Apoptosis was determined by flow cytometric analysis of Annexin V and 7-aminoactinomycin D staining. After treatment, cells during 24 h were harvested, washed 1–2 times with phosphate-buffered saline (PBS), and centrifuged at 400× g for 5 min. Cell pellets were resuspended in 200 μL of flow cytometry staining buffer (PBS without Ca^2+and Mg^2+, 2.5% FBS). Then, 200 μL of Guava Nexin reagent (Millipore, Bedford, MA, USA) were added to 5 × 10^5 cells in 200 μL, and the cells were incubated with the reagent for 20 min at room temperature in the dark. At the end of incubation, the cells were analyzed on a NovoCyteTM 2000 FlowCytometry System (ACEA, San Diego, CA, USA).

Test [9] deals with Jurkat cells. Description: Mitochondrial damage, MitoSense Red / Annexin V-CF488A / 7-AAD (FlowCellect MitoDamage Kit). The test is classed as cell-based. To be noted: for percentage of Jurkat tumor cells with reduced Δψ: 4 h (Figure 4). The source says:
The changes in the mitochondrial membrane potential (ΔΨ) in Jurkat cells induced by treatment with compounds 8a, 8b, and 8c were detected using the MitoSense Red, a fluorescent dye, which is mainly accumulated in mitochondria and responds to changes in the membrane potential. The viable whole-body cells induce a high fluorescence level of MitoSense Red, whereas cells with dissipated mitochondrial membrane potential cause much lower fluorescence of MitoSense Red or no fluorescence. Annexin V and 7AAD are two dyes commonly used to detect apoptotic cells. […] Thus, using three different dyes, MitoSense Red, Annexin V (CF488A), and 7-AAD, we analyzed the dissipation of the mitochondrial membrane potential and the related apoptosis in Jurkat tumor cells in response to the action of synthesized macrodiolides (Figure 4).
Mitochondrial damage tests were carried out following the known procedure. Cytometric assay (Millipore’s FlowCellect™MitoDamage Kit, Merck, Burlington, MA, USA) that allowed multiparametric evaluation of three cell health markers: change in mitochondrial potential (early apoptosis and cellular stress), phosphatidylserine expression on the cell surface […], and membrane permeabilization (cell death), was used.

Test [10] concerns HT-29 human colon cancer cells. Further details: method as in PMID 12530851, PMID 16551088. To be noted: HT-29 cell line; cited from earlier work.

For the molecule `O=C1OCCC/C=C\CC/C=C\CCCOC(=O)c2ccccc2OCc2ccccc2COc2ccccc21` [6a, (10Z,14Z)-7,8,9,12,13,16,17,18,26,31-decahydro-5H,20H-tribenzo[c,g,k][1,5,10,14]tetraoxacyclohexacosine-5,20-dione], the concentration for half-maximal inhibition (IC50) in test [1] came to 1940 ± 170 nM; in test [2], 430 ± 30 nM; in [3], 490 ± 40 nM; in [4], 390 ± 30 nM; in test [5] it was 610 ± 50 nM; in [6], 4710 ± 420 nM.
As for `O=C1OCCC/C=C\CC/C=C\CCCOC(=O)c2ccccc2OCc2cccc(c2)COc2ccccc21` [6b, (13Z,17Z)-2,6,9,22-tetraoxa-1,7(1,2),4(1,3)-tribenzenacyclotricosaphane-13,17-diene-8,23-dione], the IC50 in [1] came to 2180 ± 210 nM; in [2], 440 ± 40 nM; in test [3], 510 ± 50 nM; in test [4], 480 ± 50 nM; in test [5], 640 ± 60 nM; in test [6], 5090 ± 470 nM.
`O=C1OCCC/C=C\CC/C=C\CCCOC(=O)c2ccccc2OCc2ccc(cc2)COc2ccccc21` [6c, (13Z,17Z)-2,6,9,22-tetraoxa-1,7(1,2),4(1,4)-tribenzenacyclotricosaphane-13,17-diene-8,23-dione]: the IC50 in test [1] is 1760 ± 160 nM; in [2], 400 ± 30 nM; in test [3] it was 460 ± 40 nM; in test [4] it was 340 ± 30 nM; in [5], 580 ± 50 nM; in test [6], 4220 ± 390 nM.
Consider `O=C1OCCCC/C=C\CC/C=C\CCCCOC(=O)c2ccccc2OCc2ccccc2COc2ccccc21` [7a, (11Z,15Z)-7,8,9,10,13,14,17,18,19,20,28,33-dodecahydro-5H,22H-tribenzo[c,g,k][1,5,10,14]tetraoxacyclooctacosine-5,22-dione], for which the IC50 in [1] is 3860 ± 340 nM; in test [2], 940 ± 80 nM; in [3], 560 ± 60 nM; in test [4], 490 ± 40 nM; in test [5], 760 ± 80 nM; in test [6] it was 7120 ± 590 nM.
Regarding `O=C1OCCCC/C=C\CC/C=C\CCCCOC(=O)c2ccccc2OCc2cccc(c2)COc2ccccc21` [7b, (14Z,18Z)-2,6,9,24-tetraoxa-1,7(1,2),4(1,3)-tribenzenacyclopentacosaphane-14,18-diene-8,25-dione], the IC50 was 4210 ± 390 nM in [1]; 970 ± 90 nM in test [2]; 1170 ± 90 nM in test [3]; 940 ± 80 nM in test [4]; 1490 ± 110 nM in [5]; 7690 ± 720 nM in [6].
Turning to `O=C1OCCCC/C=C\CC/C=C\CCCCOC(=O)c2ccccc2OCc2ccc(cc2)COc2ccccc21` [7c, (14Z,18Z)-2,6,9,24-tetraoxa-1,7(1,2),4(1,4)-tribenzenacyclopentacosaphane-14,18-diene-8,25-dione], the IC50 was 3470 ± 310 nM in [1]; 890 ± 90 nM in test [2]; 390 ± 30 nM in test [3]; 350 ± 30 nM in test [4]; 590 ± 40 nM in test [5]; 6550 ± 610 nM in test [6].
As to `O=C1OCCCCCC/C=C\CC/C=C\CCCCCCOC(=O)c2ccccc2OCc2ccccc2COc2ccccc21` [8a, (13Z,17Z)-7,8,9,10,11,12,15,16,19,20,21,22,23,24,32,37-hexadecahydro-5H,26H-tribenzo[c,g,k][1,5,10,14]tetraoxacyclodotriacontine-5,26-dione], the IC50 in [1] came out at 1440 ± 110 nM; in [2], 220 ± 20 nM; in [3], 300 ± 20 nM; in test [4], 150 ± 20 nM; in test [5] it was 370 ± 20 nM; in [6], 3370 ± 290 nM. Moreover, the “Freq G1 (percentage of cells in G0/G1 phase)” value in [7] is 63.04%. Further, in test [8], the “apoptosis-inducing effect, dependence on dose” value (shortened to “apoptosis-inducing effect”) is given as “dose dependent”. Further, the “action on mitochondria (reduction of mitochondrial potential) compared with staurosporine” value in test [9] is “comparable with the action of staurosporine”. Further, the “percentage of Jurkat tumor cells with reduced Δψ” value (shortened to “percentage … with reduced Δψ”) in test [9] (0.15 µM) is 19.36%.
Turning to `O=C1OCCCCCC/C=C\CC/C=C\CCCCCCOC(=O)c2ccccc2OCc2cccc(c2)COc2ccccc21` [8b, (16Z,20Z)-2,6,9,28-tetraoxa-1,7(1,2),4(1,3)-tribenzenacyclononacosaphane-16,20-diene-8,29-dione], the IC50 in [1] was 1680 ± 140 nM; in test [2] it was 240 ± 20 nM; in [3] it was 310 ± 30 nM; in [4] it was 160 ± 10 nM; in test [5], 390 ± 40 nM; in test [6], 3480 ± 320 nM. Also, the “Freq G1 (percentage of cells in G0/G1 phase)” value in test [7] is listed as 59.16%. For the same molecule, the “Freq Sub-G1 (cells in the sub-G0-G1 range)” value in test [7] worked out at 4.13%. The results for the “An+,PI+ cells (late apoptosis)” value in test [8] (0.1 µM) and in [8] (0.3 µM) were 64.36% and 58.0%, respectively. For the same molecule, the “PI+ cells (necrotic)” value in [8] (0.3 µM) came to 26.49%. The “apoptosis-inducing effect” value in [8] was “dose dependent”. In addition, the “action on mitochondria (reduction of mitochondrial potential) compared with staurosporine” value in [9] was “comparable with the action of staurosporine”. In test [9] (0.15 µM, 4 h), the “percentage of apoptotic cells (early apoptosis and late apoptosis)” value is listed as 58.15%. In test [9] (0.15 µM), the “percentage … with reduced Δψ” value is recorded as 41.71%.
`O=C1OCCCCCC/C=C\CC/C=C\CCCCCCOC(=O)c2ccccc2OCc2ccc(cc2)COc2ccccc21` [8c, (16Z,20Z)-2,6,9,28-tetraoxa-1,7(1,2),4(1,4)-tribenzenacyclononacosaphane-16,20-diene-8,29-dione]: the IC50 came out at 1210 ± 90 nM in test [1]; 190 ± 10 nM in test [2]; 270 ± 20 nM in [3]; 130 ± 10 nM in [4]; 340 ± 30 nM in test [5]; 3190 ± 280 nM in [6]. In test [7], the “Freq G1 (percentage of cells in G0/G1 phase)” value came to 55.93%. For the same molecule, the “apoptosis-inducing effect” value in test [8] is on record as “dose dependent”. Moreover, in test [9] (0.15 µM), the “percentage … with reduced Δψ” value is 26.26%.
Regarding `Oc1cccc(C23C=C4CN(CCc5ccc(c(O)c5)-c5ccc(O)cc54)C2Cc2cccc(O)c23)c1` (centres unmarked) [Haouamine A], the IC50 in test [10] is recorded as 0.1 µg/mL (≈ 0.204 µM).

The record behind these values is article PMC8396040, “Direct Synthesis of Polyaromatic Cyclophanes Containing Bis-Methylene-Interrupted Z-Double Bonds and Study of Their Antitumor Activity In Vitro” (International Journal of Molecular Sciences, 2021).
